Source: ChEMBL document CHEMBL4689842, “EUbOPEN Chemogenomics Library wave 1” (2021)

How the values were obtained:
Assay type in all cases: toxicity, cell-based
Fibroblast = assay: Incucyte cell viability with human fibroblast; conditions: 10 µM, compound concentration 10 uM
HEK-293T = assay: Incucyte cell viability with HEK293T; conditions: human, 10 µM, compound concentration 10 uM
U2OS = assay: Incucyte cell viability with U2OS; conditions: human, 10 µM, compound concentration 10 uM
[1] = 0 h, replicate number 1, timepoint 0 hours
[2] = 12 h, replicate number 1, timepoint 12 hours
[3] = 12 h, replicate number 2, timepoint 12 hours
[4] = 18 h, replicate number 1, timepoint 18 hours
[5] = 24 h, replicate number 1, timepoint 24 hours
[6] = 0 h, replicate number 2, timepoint 0 hours
[7] = 6 h, replicate number 1, timepoint 6 hours
[8] = 18 h, replicate number 2, timepoint 18 hours
[9] = 6 h, replicate number 2, timepoint 6 hours
[10] = 24 h, replicate number 2, timepoint 24 hours
Further: filed as whole numbers so only -1 and 0 and 1 occur.

Compound | Growth Rate (Fibroblast; [1]) | Growth Rate (Fibroblast; [2]) | Growth Rate (Fibroblast; [3]) | Growth Rate (Fibroblast; [4]) | Growth Rate (Fibroblast; [5]) | Growth Rate (HEK-293T; [6]) | Growth Rate (HEK-293T; [7]) | Growth Rate (HEK-293T; [3]) | Growth Rate (HEK-293T; [4]) | Growth Rate (HEK-293T; [5]) | Growth Rate (U2OS; [1]) | Growth Rate (U2OS; [7]) | Growth Rate (U2OS; [2]) | Growth Rate (U2OS; [4]) | Growth Rate (U2OS; [5]) | Growth Rate (Fibroblast; [7]) | Growth Rate (Fibroblast; [8]) | Growth Rate (HEK-293T; [2]) | Growth Rate (U2OS; [10]) | Growth Rate (HEK-293T; [1]) | further results
COc1cc2c(cc1-c1c(C)noc1C)ncc1[nH]c(=O)n([C@H](C)c3ccccn3)c12 | 0 | 1 | 0 | 0 | 0 | 0 | 0 | 0 | 0 | 0 | 0 | 1 | 1 | 1 | 1 |  |  |  |  |  | 
FC(F)(F)c1c(N2CCC(c3ccccc3)CC2)ccn2c(CC3CC3)nnc12 | 0 | 1 |  | 1 | 0 | 0 | 0 |  | 0 | 0 |  | 0 | 0 | 0 | 0 | 1 | 0 | 0 | 1 |  | Growth Rate (U2OS; [6]): 0; Growth Rate (U2OS; [9]): 1; Growth Rate (U2OS; [3]): 1; Growth Rate (U2OS; [8]): 1
CCCc1cc(C)[nH]c(=O)c1CNC(=O)c1cc(-c2ccnc(N3CCN(C)CC3)c2)cc2c1cnn2C(C)C | 0 | 1 |  | 1 | 1 | 1 | 0 |  | 0 | 0 | 0 | 0 | 1 | 0 | 0 |  | 0 | 0 | 1 |  | Growth Rate (Fibroblast; [9]): 0; Growth Rate (Fibroblast; [10]): 0
Cn1cc(-c2ccc3occ(-c4ccccc4-c4ccccc4)c3n2)cn1 |  | 0 | 1 | 0 | 0 |  |  | 0 | 1 | 1 | 0 | 1 | 1 | 0 | 1 | 1 | 1 |  |  | 0 | Growth Rate (Fibroblast; [6]): 0; Growth Rate (HEK-293T; [9]): 1; Growth Rate (HEK-293T; [10]): 0; Growth Rate (U2OS; [8]): 1
CN(C)C(=O)c1ccc(-c2cc(C(=O)N(C)C3CCCC3)no2)cc1O | 0 | 1 |  | 1 | 1 |  | 1 | 1 | 1 | 1 | 1 | 1 | 1 | 1 | 1 |  |  | 0 | 0 | 0 | Growth Rate (U2OS; [8]): 0
C[C@H]1CCCN1Cc1nc2cc(NC(=O)c3ccc4cnccc4c3)ccc2[nH]1 | 0 | 1 |  | 0 | 0 | 0 | 0 |  | 1 | 1 | 0 | 0 | 1 | 1 | 1 | 0 | 1 | 0 |  | 1 | Growth Rate (Fibroblast; [10]): 1; Growth Rate (HEK-293T; [10]): 0
C[C@@H](NCCc1ccc(O)cc1)[C@@H](O)c1ccc(O)cc1.Cl (relative stereo) | 0 |  |  |  |  |  | 0 | 1 | 0 | 0 | 0 |  | 1 | 1 | 1 |  | 1 | 0 |  | 0 | Growth Rate (Fibroblast; [10]): 1; Growth Rate (HEK-293T; [9]): 1; Growth Rate (U2OS; [9]): 1
CCCCN(CCCC)C(=O)CN1C[C@@H](c2cc(OC)c3c(c2)OCO3)[C@H](C(=O)O)[C@H]1CC(C)(C)CCC [A-545] |  | 0 |  | 0 | 0 |  | 0 |  | 0 | 0 | 0 | 0 | 0 | 0 | 0 | 0 |  | 0 |  |  | Growth Rate (U2OS; [3]): 1
CCCOc1ccc([C@@H]2[C@@H](C(=O)O)[C@H](c3ccc4c(c3)OCO4)CN2CC(=O)Nc2c(CC)cccc2CC)cc1 [A-1806262] | 0 | 1 | 0 | 1 | 1 |  | 1 |  | 1 | 1 | 0 | 1 | 1 | 1 | 1 | 1 | 0 | 1 | 0 | 0 | Growth Rate (Fibroblast; [6]): 1; Growth Rate (Fibroblast; [9]): 0; Growth Rate (Fibroblast; [10]): 0; Growth Rate (HEK-293T; [10]): 0; Growth Rate (U2OS; [9]): 0; Growth Rate (U2OS; [8]): 0
NS(=O)(=O)c1cc(NC(=O)C2(c3ccccc3Cl)CC2)ccc1Oc1cccc(Cl)c1 [BAY-207] | 0 |  | 1 | 1 | 1 |  | 0 |  | 0 | 0 | 0 | 0 | 0 | 0 | 1 | 1 |  | 0 | 0 | 0 | Growth Rate (Fibroblast; [9]): 0
CC1=C(C#N)C(c2ccc3c(c2)c(NC(=O)c2ccccc2C)nn3C)C(C#N)=C(C)N1 [BAY-974] |  | 1 |  | 1 | 1 | 1 |  |  |  |  |  | 1 | 1 | 1 | 1 | 1 |  |  |  | 0 | Growth Rate (Fibroblast; [6]): 0; Growth Rate (HEK-293T; [10]): 1; Growth Rate (U2OS; [6]): 0; Growth Rate (U2OS; [9]): 0; Growth Rate (U2OS; [3]): 0
